Data on 29 compounds can be found in US9675614B2, “PRMT5 inhibitors and uses thereof” (Epizyme, Inc., priority 2012, dated 2017).

Usually IC50 stands for the concentration at which inhibition is half-maximal.

PRMT5/MEP50, sequence (O14744 other isoform, or with tags, fused parts or gaps): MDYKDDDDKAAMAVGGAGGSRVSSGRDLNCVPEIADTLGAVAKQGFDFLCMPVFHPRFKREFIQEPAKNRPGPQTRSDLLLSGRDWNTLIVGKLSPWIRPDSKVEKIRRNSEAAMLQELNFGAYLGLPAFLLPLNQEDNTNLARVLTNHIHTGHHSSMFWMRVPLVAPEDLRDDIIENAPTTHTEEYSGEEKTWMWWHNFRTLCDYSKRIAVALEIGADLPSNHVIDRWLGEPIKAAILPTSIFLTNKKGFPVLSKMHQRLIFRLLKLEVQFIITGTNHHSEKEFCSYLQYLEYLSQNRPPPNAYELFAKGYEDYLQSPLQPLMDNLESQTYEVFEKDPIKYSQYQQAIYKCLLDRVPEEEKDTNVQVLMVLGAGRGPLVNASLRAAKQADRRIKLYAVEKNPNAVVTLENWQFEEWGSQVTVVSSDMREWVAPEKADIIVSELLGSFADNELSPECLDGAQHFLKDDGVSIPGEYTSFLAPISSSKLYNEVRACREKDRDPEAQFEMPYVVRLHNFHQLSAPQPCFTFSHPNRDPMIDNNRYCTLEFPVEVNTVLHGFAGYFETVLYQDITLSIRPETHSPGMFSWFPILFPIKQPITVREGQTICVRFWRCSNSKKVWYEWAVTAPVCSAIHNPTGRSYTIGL
PRMT5/MEP50, sequence (Q9BQA1 other isoform, or with tags, fused parts or gaps partner): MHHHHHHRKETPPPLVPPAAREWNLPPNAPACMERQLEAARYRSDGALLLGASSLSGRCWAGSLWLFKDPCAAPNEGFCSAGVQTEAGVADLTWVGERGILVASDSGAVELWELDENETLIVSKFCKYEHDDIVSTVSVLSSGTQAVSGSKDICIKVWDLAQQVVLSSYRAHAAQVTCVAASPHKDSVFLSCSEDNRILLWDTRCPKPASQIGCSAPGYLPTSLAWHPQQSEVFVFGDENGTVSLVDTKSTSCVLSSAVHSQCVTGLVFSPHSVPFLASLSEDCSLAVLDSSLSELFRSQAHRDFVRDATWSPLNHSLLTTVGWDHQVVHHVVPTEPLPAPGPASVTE

For the assay, the target named is PRMT5/MEP50 (Homo sapiens (Human), UniProt O14744). The assay can be described thus: PRMT5 Biochemical Assay (PRMT5/MEP50 enzyme assay on peptide substrate, 3H-SAM Flashplate). To be noted: PRMT5/MEP50 biochemical assay; read-out: Biochemical IC50. The text has this:
S-adenosylmethionine (SAM), S-adenosylhomocysteine (SAH), bicine, KCl, Tween20, dimethylsulfoxide (DMSO), bovine skin gelatin (BSG), and Tris(2-carboxyethyl)phosphine hydrochloride solution (TCEP) were purchased from Sigma-Aldrich at the highest level of purity possible. ^3H-SAM was purchase from American Radiolabeled Chemicals with a specific activity of 80 Ci/mmol. 384-well streptavidin Flashplates were purchased from PerkinElmer.
Peptide representative of human histone H4 residues 1-15 was synthesized with a C-terminal linker-affinity tag motif and a C-terminal amide cap by 21st Century Biochemicals. […] The sequence was Ac-[…][K-Biot]amide (SEQ ID NO.:3).
Full-length human MEP50 (NM_024102) clone was amplified from a human testis cDNA library incorporating a 5′ sequence encoding a 6-histidine tag (MHHHHHH) (SEQ ID NO.:5) fused directly to Arg 2 of MEP50. The amplified genes were subcloned into pENTR/D/TEV (Life Technologies) and subsequently transferred by Gateway™ attL×attR recombination to pDEST8 baculvirus expression vector (Life Technologies).
Recombinant baculovirus and Baculovirus-Infected Insect Cells (BIIC) were generated according to Bac-to-Bac kit instructions (Life Technologies) and Wasilko, 2006, respectively. Protein over-expression was accomplished by infecting exponentially growing Spodoptera frugiperda (SF9) cell culture at 1.2×10^6 cell/ml with a 5000 fold dilution of BIIC stock. Infections were carried out at 27° C. for 72 hours, harvested by centrifugation, and stored at −80° C. for purification.
Flag-PRMT5/6His-MeP50 was eluted with 300 mM Imidazole in the same buffer. […] Reference: Wasilko, D. J. and S. E. Lee: “TIPS: titerless infected-cells preservation and scale-up” Bioprocess J., 5 (2006), pp. 29-32.
General Procedure for PRMT5/MEP50 Enzyme Assays on Peptide Substrates.
The assays were all performed in a buffer consisting of 20 mM Bicine (pH=7.6), 1 mM TCEP, 0.005% BSG, and 0.002% Tween20, prepared on the day of use. Compounds in 100% DMSO (1 ul) were spotted into a polypropylene 384-well V-bottom plates (Greiner) using a Platemate Plus outfitted with a 384-channel head (Thermo Scientific). DMSO (1 ul) was added to Columns 11, 12, 23, 24, rows A-H for the maximum signal control and 1 ul of SAH, a known product and inhibitor of PRMT5/MEP50, was added to columns 11, 12, 23, 24, rows I-P for the minimum signal control. A cocktail (40 ul) containing the PRMT5/MEP50 enzyme and the peptide was added by Multidrop Combi (Thermo-Fisher). The compounds were allowed to incubate with PRMT5/MEP50 for 30 min at 25 degrees Celsius, then a cocktail (10 ul) containing ^3H-SAM was added to initiate the reaction (final volume=51 ul). The final concentrations of the components were as follows: PRMT5/MEP50 was 4 nM, ^3H-SAM was 75 nM, peptide was 40 nM, SAH in the minimum signal control wells was 100 uM, and the DMSO concentration was 1%. The assays were stopped by the addition of non-radioactive SAM (10 ul) to a final concentration of 600 uM, which dilutes the ^3H-SAM to a level where its incorporation into the peptide substrate is no longer detectable. 50 ul of the reaction in the 384-well polypropylene plate was then transferred to a 384-well Flashplate and the biotinylated peptides were allowed to bind to the streptavidin surface for at least 1 hour before being washed three times with 0.1% Tween20 in a Biotek ELx405 plate washer. The plates were then read in a PerkinElmer TopCount plate reader to measure the quantity of ^3H-labeled peptide bound to the Flashplate surface, measured as disintegrations per minute (dpm) or alternatively, referred to as counts per minute (cpm).
[formula] Where dpm=disintegrations per minute, cmpd=signal in assay well, and min and max are the respective minimum and maximum signal controls.
[formula] Where top and bottom are the normally allowed to float, but may be fixed at 100 or 0 respectively in a 3-parameter fit.
With `CN(C)C(=O)CN1CCN(Cc2cccc(C(=O)NCC(O)CN3CCc4ccccc4C3)c2)CC1` (centres unmarked) [Compound 174], the IC50 was under 100 nM.

With `CN(c1ccc(C(=O)NCC(O)CN2CCc3ccccc3C2)cc1)C1CCOC1` (centres unmarked) [Compound 144], the half-inhibitory concentration (IC50) was under 100 nM.

In the case of `CC(=O)N(C)CCN1CCN(Cc2cccc(C(=O)NCC(O)CN3CCc4ccccc4C3)c2)CC1` (centres unmarked) [Compound 252], the concentration for half-maximal inhibition (IC50) is under 100 nM.

As to `O=C(NC[C@H](O)CN1CCc2ccccc2C1)c1ccnc(NCC2CCCCN2)c1` (some centres unmarked) [Compound 237], the IC50 is under 100 nM.

Consider `O=C(NCC(O)CN1CCc2ccccc2C1)c1cccc(OC2CCN(CC(F)(F)F)C2)c1` (centres unmarked) [Compound 137], for which the IC50 was under 100 nM.

For the compound `CC(=O)N1CC(Nc2cc(C(=O)NC[C@H](O)CN3CCc4ccccc4C3)ncn2)C1` [Compound 284, (S)-6-((1-acetylazetidin-3-yl)amino)-N-(3-(3,4-dihydroisoquinolin-2(1H)-yl)-2-hydroxypropyl)pyrimidine-4-carboxamide], the IC50 was under 100 nM.

`O=C(NC[C@@H](O)CN1CCc2ccccc2C1)Nc1ccccc1` [Compound 6]: the half-inhibitory concentration (IC50) lay within 1000 to 10000 nM.

Regarding `O=C(NC[C@H](O)CN1CCc2ccccc2C1)c1ccc2ncsc2c1` [Compound 273], the IC50 is under 100 nM.

With `CN(CC(O)CN1CCc2ccccc2C1)C(=O)c1cccc(NC2CCOCC2)c1` (centres unmarked) [Compound 71], the IC50 lay in the range of 101 to 1000 nM.

On to `NCCN1CCN(Cc2cccc(C(=O)NCC(O)CN3CCc4ccccc4C3)c2)CC1` (centres unmarked) [Compound 147], for which the half-inhibitory concentration (IC50) is under 100 nM.

Turning to `O=C(NC[C@H](O)CN1CCc2ccccc2C1)c1cncc(OC2CCOCC2)c1` [Compound 183], the IC50 was under 100 nM.

For the compound `O=C(NCC(O)CN1CCc2ccccc2C1)c1cccc(NC2CCCOC2)c1` (centres unmarked) [Compound 60], the IC50 lay within 101 to 1000 nM.

With `COc1ccc(C(=O)NCC(O)CN2CCc3ccccc3C2)cc1NC1CCOCC1` (centres unmarked) [Compound 67], the concentration for half-maximal inhibition (IC50) is 101 to 1000 nM.

For `O=C(NC[C@H](O)CN1CCc2ccccc2C1)c1ccnc(NCC2CC2)c1` [Compound 187], the IC50 was under 100 nM.

`CC(=O)N1CCC(Nc2cccc(C(=O)NCC(O)CN3CCc4ccccc4C3)c2)C1` (centres unmarked) [Compound 121]: the IC50 was under 100 nM.

Take `Cn1nccc1C(=O)NCC(O)CN1CCc2ccccc2C1` (centres unmarked) [Compound 150]: the IC50 fell in the range of 101 to 1000 nM.

For the compound `O=C(NC[C@H](O)CN1CCc2ccccc2C1)c1ccc2ncccc2c1` [Compound 220], the IC50 is under 100 nM.

On to `O=C(NC[C@H](O)CN1CCc2ccccc2C1)c1cccc2[nH]cnc12` [Compound 241], for which the IC50 was under 100 nM.

With `Cn1cc(C(=O)NC[C@H](O)CN2CCc3ccccc3C2)c2ccccc21` [Compound 246], the half-inhibitory concentration (IC50) was under 100 nM.

For `O=C(NC[C@H](O)CN1CCc2ccccc2C1)c1ccc2[nH]ccc2c1` [Compound 270], the half-maximal inhibitory concentration (IC50) lay in the range of 1000 to 10000 nM.

Consider `O=C(NCC(O)CN1CCc2ccccc2C1)c1ccnc(NC2CCOCC2)c1` (centres unmarked) [Compound 74], for which the IC50 was under 100 nM.

Consider `CN1CCC(Oc2ccc(C(=O)NCC(O)CN3CCc4ccccc4C3)cc2)CC1` (centres unmarked) [Compound 105], for which the IC50 was under 100 nM.

With `O=C(NC[C@H](O)CN1CCc2ccccc2C1)c1cc(OC2CCNCC2)ncn1` [Compound 258], the 50% inhibitory concentration (IC50) was under 100 nM.

`O=C(NCC(O)CN1CCc2ccccc2C1)c1cncc(NC2CCOCC2)n1` (centres unmarked) [Compound 75]: the 50% inhibitory concentration (IC50) was in the range of 101 to 1000 nM.

For the compound `Cc1cnc(NC2CCOCC2)cc1C(=O)NC[C@H](O)CN1CCc2ccccc2C1` [Compound 307], the half-inhibitory concentration (IC50) was under 100 nM.

Regarding `O=C(NC[C@H](O)CN1CCc2ccccc2C1)c1ccnc(NCCNCC(F)(F)F)c1` [Compound 316], the IC50 was under 100 nM.

For `CN1CCC(Oc2ccc(C(=O)NCC(O)CN3CCc4ccccc4C3)cc2)C1` (centres unmarked) [Compound 177], the 50% inhibitory concentration (IC50) was under 100 nM.

Regarding `CS(=O)(=O)N1CC[C@@H](Nc2cccc(C(=O)NC[C@H](O)CN3CCc4ccccc4C3)c2)C1` [Compound 267], the IC50 was under 100 nM.

In the case of `O=C(NCC(O)CN1CCc2ccccc2C1)c1cccc(NC2CCOCC2O)c1` (centres unmarked) [Compound 98], the half-maximal inhibitory concentration (IC50) is under 100 nM.
